In paper PMC2873968, “Novel protein kinase D inhibitors cause potent arrest in prostate cancer cell growth and motility” (BMC Chemical Biology, 2010):

What was measured:
PKD = settings: reported values, no reference given; cited from earlier work
PKCβI = molecular target: T1, PKCβI (Homo sapiens, UniProt P05771); experiment: In vitro radiometric PKC kinase assay; type: biochemical
T1 construct: purchased Cell Signaling Technology
Protocol: (§1) The PKC in vitro kinase assays were performed as described previously.
(§2) To determine whether the novel analogs retained this specificity, we tested the compounds against their ability to inhibit PKCα, -βI, -δ, and CAMKIIα in in vitro radiometric kinase activity assays. All analogs were poor inhibitors of PKCα and PKCβI, with only slight (< 50%) inhibitory activity at 10 μM concentration (Fig. 5A and 5B).
(§3) Inhibition of PKCα (A), PKCβI (B), PKCδ (C), or CAMKIIα (D) by each of the 5 analogs was determined at 100 nM, 1 μM, and 10 μM concentrations. In the PKC assays, the potent PKC inhibitor GF109203X was used as a control. Data are the mean ± S.E.M. of three independent experiments. Statistical significance was determined using the unpaired t-test. ns, not statistically significant; *, p < 0.05; **, p < 0.01; ***, p < 0.001.

PKCα = molecular target: T2, PKCα (Homo sapiens, UniProt P17252); experiment: In vitro radiometric PKC kinase assay; type: biochemical
T2 construct: purchased Cell Signaling Technology and Calbiochem
Protocol: as §1, §2, §3

PKCδ = molecular target: T3, PKCδ (Homo sapiens, UniProt Q05655); experiment: In vitro radiometric PKC kinase assay; type: biochemical
T3 construct: purchased Enzo Life Sciences
T3 sequence (Q05655 whole entry): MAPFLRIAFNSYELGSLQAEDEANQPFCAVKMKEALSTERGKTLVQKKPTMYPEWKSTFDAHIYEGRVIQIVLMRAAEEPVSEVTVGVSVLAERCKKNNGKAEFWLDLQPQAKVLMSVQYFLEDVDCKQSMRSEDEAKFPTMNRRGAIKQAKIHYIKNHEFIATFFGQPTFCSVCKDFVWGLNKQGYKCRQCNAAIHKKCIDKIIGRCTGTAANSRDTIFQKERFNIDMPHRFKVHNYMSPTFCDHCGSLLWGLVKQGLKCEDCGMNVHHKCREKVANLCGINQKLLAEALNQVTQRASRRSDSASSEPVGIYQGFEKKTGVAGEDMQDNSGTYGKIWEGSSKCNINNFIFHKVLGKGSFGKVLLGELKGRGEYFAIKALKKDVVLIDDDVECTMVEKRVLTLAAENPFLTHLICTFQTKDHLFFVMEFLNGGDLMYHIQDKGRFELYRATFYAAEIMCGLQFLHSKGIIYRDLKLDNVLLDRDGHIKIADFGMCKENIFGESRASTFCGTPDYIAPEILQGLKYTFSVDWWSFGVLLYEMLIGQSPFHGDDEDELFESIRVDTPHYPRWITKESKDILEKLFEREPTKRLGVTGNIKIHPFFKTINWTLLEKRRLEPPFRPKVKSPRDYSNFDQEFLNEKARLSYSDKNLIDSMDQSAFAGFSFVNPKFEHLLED
Protocol: as §1
To determine whether the novel analogs retained this specificity, we tested the compounds against their ability to inhibit PKCα, -βI, -δ, and CAMKIIα in in vitro radiometric kinase activity assays.
as §3, with “In the PKC assays, the potent PKC inhibitor GF109203X was used as a control.” left out

T1 sequence (P05771 whole entry): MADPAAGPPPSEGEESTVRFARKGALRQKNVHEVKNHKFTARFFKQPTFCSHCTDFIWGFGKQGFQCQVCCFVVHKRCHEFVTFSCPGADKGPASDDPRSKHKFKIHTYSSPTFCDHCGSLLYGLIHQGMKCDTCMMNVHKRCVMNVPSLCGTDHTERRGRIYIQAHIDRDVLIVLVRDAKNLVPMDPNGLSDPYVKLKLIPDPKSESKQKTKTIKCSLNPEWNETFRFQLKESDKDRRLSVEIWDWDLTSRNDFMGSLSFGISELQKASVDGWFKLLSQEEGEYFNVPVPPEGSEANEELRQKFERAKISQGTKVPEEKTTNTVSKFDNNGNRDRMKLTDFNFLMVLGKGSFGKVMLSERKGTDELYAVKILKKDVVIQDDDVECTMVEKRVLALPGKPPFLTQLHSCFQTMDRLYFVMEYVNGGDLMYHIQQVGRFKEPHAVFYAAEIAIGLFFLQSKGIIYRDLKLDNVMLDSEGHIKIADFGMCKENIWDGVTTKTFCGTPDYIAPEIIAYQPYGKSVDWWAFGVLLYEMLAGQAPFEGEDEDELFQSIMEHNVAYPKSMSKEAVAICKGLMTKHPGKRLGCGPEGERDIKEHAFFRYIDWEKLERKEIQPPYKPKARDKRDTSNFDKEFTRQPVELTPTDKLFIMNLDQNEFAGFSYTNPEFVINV

| Structure (SMILES) | IC50 (PKD) | inhibition of PKCβI (in words) (PKCβI) | inhibition of PKCα (in words) (PKCα) | inhibition of PKCδ (in words) (PKCδ) |
| --- | --- | --- | --- | --- |
| COC(=O)[C@@]1(O)C[C@H]2O[C@]1(C)n1c3ccccc3c3c4c(c5c6ccccc6n2c5c31)C(=O)NC4 [Compound K252a] | 7 nM |  |  |  |
| CN(C)CCCn1cc(C2=C(c3c[nH]c4ccccc34)C(=O)NC2=O)c2ccccc21 [GF109203X] |  | strong inhibition | strong inhibition | strong inhibition |
| Cn1c2ccccc2c2c3c(c4c5ccccc5n(CCC#N)c4c21)CNC3=O [Gö6976] | 20 nM |  |  |  |
